Like-named read-outs stand apart in the source and are kept apart here.
Columns and labels:
[1] = test system: mouse model of ovalbumin (OVA)-induced asthma; experiment: Experimental asthma model: methacholine (MCh)-induced bronchoconstriction/airway hyper-reactivity (Penh) in ovalbumin (OVA)-induced asthma; assay type: in vivo; conditions: for response vs control in vivo at 0.1 mg/kg: single IV dose 0.1 mg/kg; for efficacy against experimental asthma (attenuation of MCh induced bronchoconstriction): administered intravenously (IV); for response vs control in vivo at 1 mg/kg: single IV dose 1 mg/kg; for response vs control in vivo at 30 mg/kg: single oral dose 30 mg/kg; for efficacy against experimental asthma (attenuation of MCh induced bronchoconstriction and pulmonary inflammation): administered intravenously (IV) or orally; for response vs control in vivo at 10 mg/kg: single IV dose 10 mg/kg
Method: (§1) A mouse model of ovalbumin (OVA)-induced asthma was used to screen GSNOR inhibitors for efficacy against methacholine (MCh)-induced bronchoconstriction/airway hyper-reactivity. This is a widely used and well characterized model that presents with an acute, allergic asthma phenotype with similarities to human asthma. Efficacy of GSNOR inhibitors were assessed using a prophylactic protocol in which GSNOR inhibitors were administered prior to challenge with MCh. Bronchoconstriction in response to challenge with increasing doses of MCh was assessed using whole body plethysmography (Penh; Buxco). The amount of eosinophil infiltrate into the bronchioalveolar lavage fluid (BALF) was also determined as a measure of lung inflammation. The effect of GSNOR inhibitors were compared to vehicles and to Combivent (inhaled; IH) as the positive control.
(§2) OVA (500 μg/ml) in PBS was mixed with equal volumes of 10% (w/v) aluminum potassium sulfate in distilled water and incubated for 60 min. at room temperature after adjustment to pH 6.5 using 10 N NaOH. After centrifugation at 750×g for 5 min, the OVA/alum pellet was resuspended to the original volume in distilled water. Mice received an intraperitoneal (IP) injection of 100 μg OVA (0.2 mL of 500 μg/mL in normal saline) complexed with alum on day 0. Mice were anesthetized by IP injection of a 0.2-mL mixture of ketamine and xylazine (0.44 and 6.3 mg/mL, respectively) in normal saline and were placed on a board in the supine position. Two hundred fifty micrograms (100 μl of a 2.5 mg/ml) of OVA (on day 8) and 125 μg (50 μl of 2.5 mg/ml) OVA (on days 15, 18, and 21) were placed on the back of the tongue of each animal.
In vivo airway responsiveness to methacholine was measured 24 h after the last OVA challenge in conscious, freely moving, spontaneously breathing mice with whole body plethysmography using a Buxco chamber (Wilmington, N.C.). Mice were challenged with aerosolized saline or increasing doses of methacholine (5, 20 and 50 mg/mL) generated by an ultrasonic nebulizer for 2 min. The degree of bronchoconstriction was expressed as enhanced pause (Penh), a calculated dimensionless value, which correlates with the measurement of airway resistance, impedance, and intrapleural pressure in the same mouse. Penh readings were taken and averaged for 4 min. after each nebulization challenge. Penh was calculated as follows: Penh=[(Te/Tr−1)×(PEF/PIF)], where Te is expiration time, Tr is relaxation time, PEF is peak expiratory flow, and PIF is peak inspiratory flow×0.67 coefficient. The time for the box pressure to change from a maximum to a user-defined percentage of the maximum represents the relaxation time. The Tr measurement begins at the maximum box pressure and ends at 40%.
(§3) GSNOR inhibitors were reconstituted in phosphate buffered saline (PBS), pH 7.4, at concentrations ranging from 0.00005 to 3 mg/mL. GSNOR inhibitors were administered to mice (10 mL/kg) as a single dose either intravenously (IV) or orally via gavage. Dosing was performed from 30 min. to 24 h prior to MCh challenge. Effect of GSNOR inhibitors were compared to PBS vehicle dosed in the same manner.
Combivent was used as the positive control in all studies. Combivent (Boehringer Ingelheim) was administered to the lung using the inhaler device supplied with the product, but adapted for administration to mice, using a pipet tip. Combivent was administered 48 h, 24 h, and 1 h prior to MCh challenge. Each puff (or dose) of Combivent provided a dose of 18 μg ipatropium bromide (IpBr) and 103 μg albuterol sulfate or approximately 0.9 mg/kg IpBr and 5 mg/kg albuterol.
(§4) Area under the curve values for Penh across baseline, saline, and increasing doses of MCh challenge were calculated using GraphPad Prism 5.0 (San Diego, Calif.) and expressed as a percent of the respective (IV or orally administered) vehicle control.

[2] = test system: mouse model of ovalbumin (OVA)-induced asthma; experiment: as above; assay type: in vivo; conditions: single IV dose 0.1 mg/kg, 48 h prior to MCh, read-out: area under the curve (AUC) for Penh response as percent of vehicle control
[3] = test system: OVA sensitized mice, methacholine-induced bronchial hyper-reactivity; experiment: GSNOR inhibition assay in an in vivo animal model: OVA mouse model of asthma, methacholine challenge, Penh by whole body plethysmograph; conditions: 1 mg/kg, 10 mg/kg or 30 mg/kg intravenously 24 hours prior
Method: In an effort to determine if similar observations would manifest if GSNOR were inhibited pharmacologically by a GSNOR inhibitor, an OVA mouse model (i.e., the wild-type model of Que et al.) was used. In this study, OVA sensitized mice were administered 1 mg/kg, 10 mg/kg or 30 mg/kg of Compound 1 intravenously at 24 hours prior to being placed in a whole body plethysmograph (Buxco Research Systems, Wilmington, N.C.) and provided with fresh air.
Subject animals were then challenged with an aerosol of increasing dosages of the bronchoconstrictive agent methacholine, a pharmacologic agent commonly used in determining the degree of bronchial hyper-reactivity in experimental subjects. In this study mice were exposed to an increasing concentration of methacholine, each dose being presented for 3 minutes, during which time readings were taken. Doses of methacholine were 0 mg/ml, 5 mg/ml, 20 mg/ml, and 50 mg/ml. The degree of bronchial hyper-reactivity was measured as the ‘Enhanced Pause’ (Penh), a unit-less index of airway hyper-reactivity (Dohi et al., Lab Invest. 79(12):1559-1571, 1999).

[4] = test system: mouse model of ovalbumin (OVA)-induced asthma; experiment: Experimental asthma model: eosinophil infiltrate in bronchioalveolar lavage fluid (BALF); assay type: in vivo
Method: as §1, §2
After measurement of airway hyper-reactivity, the mice were exsanguination by cardiac puncture, and then BALF was collected from either both lungs or from the right lung after tying off the left lung at the mainstem bronchus. Total BALF cells were counted from a 0.05 mL aliquot, and the remaining fluid is centrifuged at 200×g for 10 min at 4° C. Cell pellets were resuspended in saline containing 10% BSA with smears made on glass slides. Eosinophils were stained for 5 min. with 0.05% aqueous eosin and 5% acetone in distilled water, rinsed with distilled water, and counterstained with 0.07% methylene blue.
as §3
as §4, with “control. Statistical differences among treatment groups and the respective vehicle control group within each study were calculated using one-way ANOVA, Dunnetts (JMP 8.0, SAS Institute, Cary, N.C.).” for “control.”

[5] = Mus musculus, 24 h prior to MCh, read-out: area under the curve (AUC) for Penh response as percent of vehicle control
[6] = single IV dose 1 mg/kg, 24 h prior to MCh
[7] = single oral dose 30 mg/kg, 24 h prior to MCh

| Structure (SMILES) | efficacy against experimental asthma (attenuation of MCh induced bronchoconstriction) [1] | response vs control in vivo at 1 mg/kg [1, 5] | reduction of eosinophil infiltration into the BALF [4, 6] | response vs control in vivo at 30 mg/kg [1, 5] | efficacy against experimental asthma (attenuation of MCh induced bronchoconstriction and pulmonary inflammation) [1] | reduction of eosinophil infiltration into the BALF [4, 7] | also measured |
| --- | --- | --- | --- | --- | --- | --- | --- |
| Cc1cc(C(N)=O)ccc1-n1c(CCC(=O)O)ccc1-c1ccc(-n2ccnc2)cc1 [Compound 1, 3-(5-(4-(1H-imidazol-1-yl)phenyl)-1-(4-carbamoyl-2-methyl-phenyl)-1H-pyrrol-2-yl)propanoic acid] | efficacious |  |  |  |  |  | ED50 ([1]; Mus musculus, iv, read-out: ED50, dose demonstrating 50% reduction in Penh response): 0.011 ± 0.003 mg/kg; response vs control in vivo at 0.01 mg/kg ([1]; Mus musculus, single IV dose 0.01 mg/kg, 24 h prior to MCh, read-out: area under the curve (AUC) for Penh response as percent of vehicle control): 42.1 ± 2.8%; response vs control in vivo at 0.1 mg/kg ([1]; Mus musculus, 1 h prior to MCh, read-out: area under the curve (AUC) for Penh response as percent of vehicle control): 76.4 ± 6.6%; response vs control in vivo at 0.1 mg/kg [2]: 64.4 ± 55%; broncho-constrictive responses (Penh) to methacholine challenge compared with vehicle-only dosed animals [3]: lower broncho-constrictive responses; reduction of eosinophil infiltration into the BALF ([4]; single IV dose 0.01 mg/kg, 24 h prior to MCh): 98% |
| Cc1cc(C(N)=O)ccc1-n1c(CCC(=O)O)ccc1-c1ccc(-n2ccnc2C)cc1 [Compound 3, 3-(1-(4-carbamoyl-2-methyl-phenyl)-5-(4-(2-methyl-1H-imidazol-1-yl)phenyl)-1H-pyrrol-2-yl)propanoic acid] | efficacious | 71 ± 8.6% | 46% |  |  |  |  |
| Cc1cc(NS(C)(=O)=O)ccc1-n1c(CCC(=O)O)ccc1-c1ccc(-n2ccnc2C)s1 [Compound 171, 3-(5-(5-(2-methyl-1H-imidazol-1-yl)thiophen-2-yl)-1-(2-methyl-4-(methyl-sulfonamido)-phenyl)-1H-pyrrol-2-yl)propanoic acid] | efficacious | 78.7 ± 8.1% | 63% |  |  |  |  |
| COc1ccc(-c2ccc(CCC(=O)O)n2-c2ccc(C(N)=O)cc2C)cc1 [Compound 9, 3-(1-(4-carbamoyl-2-methylphenyl)-5-(4-methoxy-phenyl)-1H-pyrrol-2-yl)propanoic acid] |  | 65.3 ± 5.9% | 92% | 24.6 ± 3% | efficacious | 100% |  |
| Cc1cc(C(N)=O)ccc1-n1c(CCC(=O)O)ccc1-c1ccc(Br)cc1 [Compound 12, 3-(5-(4-bromophenyl)-1-(4-carbamoyl-2-methylphenyl)-1H-pyrrol-2-yl)propanoic acid] | efficacious |  |  |  |  |  |  |
| COc1cc(Cl)ccc1-c1ccc(CCC(=O)O)n1-c1ccc(C(N)=O)cc1C [Compound 116, 3-(1-(4-carbamoyl-2-methylphenyl)-5-(4-chloro-2-methoxy-phenyl)-1H-pyrrol-2-yl)propanoic acid] |  | 60.2 ± 7.9% | 100% | 26.7 ± 1.4% | efficacious | 100% | response vs control in vivo at 10 mg/kg ([1]; Mus musculus, 0.5 h, 30 min. prior to MCh, read-out: area under the curve (AUC) for Penh response as percent of vehicle control): 35.2 ± 9.3%; response vs control in vivo at 0.1 mg/kg [1, 5]: 64.2 ± 7.6%; response vs control in vivo at 10 mg/kg [1, 5]: 40.7 ± 2.4%; reduction of eosinophil infiltration into the BALF ([4]; single IV dose 0.1 mg/kg, 24 h prior to MCh): 79%; reduction of eosinophil infiltration into the BALF ([4]; single IV dose 10 mg/kg, 30 min. prior to MCh): 94%; reduction of eosinophil infiltration into the BALF ([4]; single IV dose 10 mg/kg, 24 h prior to MCh): 100% |

Source: patent US8691816B2, “Pyrrole inhibitors of S-nitrosoglutathione reductase as therapeutic agents” (N30 Pharmaceuticals, Inc., priority 2008, dated 2014)
